According to paper PMC6895203, “Conformational pathway provides unique sensitivity to a synaptic mGluR” (Nature Communications, 2019):
Where “and” joins values, the source holds several entries; their conditions need not be identical. Equal values may be shown once.

Key:
[1] = target: T1, SNAP-mGluR7(N74K) homodimer (Rattus norvegicus, UniProt P35400, N74K); assay: smFRET on SNAP-mGluR7(N74K) homodimers; format: biochemical; settings: 10 mM glutamate; wild-type at >10X higher glutamate
T1 construct: HA (N); made in house; host or cells: HEK293T
T1 sequence (P35400 35-915 N74K): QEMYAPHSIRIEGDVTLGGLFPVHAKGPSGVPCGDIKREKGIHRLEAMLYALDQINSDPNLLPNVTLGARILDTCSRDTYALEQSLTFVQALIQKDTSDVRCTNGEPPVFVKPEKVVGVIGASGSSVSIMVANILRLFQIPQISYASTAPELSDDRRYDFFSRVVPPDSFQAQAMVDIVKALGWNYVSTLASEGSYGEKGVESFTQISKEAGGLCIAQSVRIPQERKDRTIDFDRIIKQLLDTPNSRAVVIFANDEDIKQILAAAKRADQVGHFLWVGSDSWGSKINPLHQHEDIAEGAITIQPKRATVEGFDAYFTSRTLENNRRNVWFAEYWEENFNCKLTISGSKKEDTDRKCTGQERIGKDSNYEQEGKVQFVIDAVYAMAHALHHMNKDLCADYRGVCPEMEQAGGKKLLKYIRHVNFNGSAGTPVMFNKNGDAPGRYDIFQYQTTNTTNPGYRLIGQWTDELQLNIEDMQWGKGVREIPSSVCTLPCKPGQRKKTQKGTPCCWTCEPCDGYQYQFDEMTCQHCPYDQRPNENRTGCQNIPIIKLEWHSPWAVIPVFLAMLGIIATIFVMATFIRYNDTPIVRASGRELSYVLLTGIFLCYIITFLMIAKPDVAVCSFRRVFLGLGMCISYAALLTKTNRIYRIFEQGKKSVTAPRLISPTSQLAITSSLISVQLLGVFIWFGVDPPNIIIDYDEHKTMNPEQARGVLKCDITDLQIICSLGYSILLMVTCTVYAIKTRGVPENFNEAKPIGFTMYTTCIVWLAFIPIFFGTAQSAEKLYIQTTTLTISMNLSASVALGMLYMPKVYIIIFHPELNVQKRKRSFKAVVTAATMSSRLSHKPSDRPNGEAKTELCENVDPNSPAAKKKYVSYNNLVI
Description: (§1) (100 ms time resolution).

[2] = target: T2, CLIP-mGluR3/SNAP-mGluR7 heterodimer (mGluR3/7) (Rattus norvegicus, UniProt P31422+P35400); assay: smFRET on CLIP-mGluR3/SNAP-mGluR7 heterodimers; format: biochemical; settings: for smFRET histogram value: 10uM Glu
T2 construct: Flag (N); HA (N); made in house; host or cells: HEK293T
T2 sequence (P31422 23-879): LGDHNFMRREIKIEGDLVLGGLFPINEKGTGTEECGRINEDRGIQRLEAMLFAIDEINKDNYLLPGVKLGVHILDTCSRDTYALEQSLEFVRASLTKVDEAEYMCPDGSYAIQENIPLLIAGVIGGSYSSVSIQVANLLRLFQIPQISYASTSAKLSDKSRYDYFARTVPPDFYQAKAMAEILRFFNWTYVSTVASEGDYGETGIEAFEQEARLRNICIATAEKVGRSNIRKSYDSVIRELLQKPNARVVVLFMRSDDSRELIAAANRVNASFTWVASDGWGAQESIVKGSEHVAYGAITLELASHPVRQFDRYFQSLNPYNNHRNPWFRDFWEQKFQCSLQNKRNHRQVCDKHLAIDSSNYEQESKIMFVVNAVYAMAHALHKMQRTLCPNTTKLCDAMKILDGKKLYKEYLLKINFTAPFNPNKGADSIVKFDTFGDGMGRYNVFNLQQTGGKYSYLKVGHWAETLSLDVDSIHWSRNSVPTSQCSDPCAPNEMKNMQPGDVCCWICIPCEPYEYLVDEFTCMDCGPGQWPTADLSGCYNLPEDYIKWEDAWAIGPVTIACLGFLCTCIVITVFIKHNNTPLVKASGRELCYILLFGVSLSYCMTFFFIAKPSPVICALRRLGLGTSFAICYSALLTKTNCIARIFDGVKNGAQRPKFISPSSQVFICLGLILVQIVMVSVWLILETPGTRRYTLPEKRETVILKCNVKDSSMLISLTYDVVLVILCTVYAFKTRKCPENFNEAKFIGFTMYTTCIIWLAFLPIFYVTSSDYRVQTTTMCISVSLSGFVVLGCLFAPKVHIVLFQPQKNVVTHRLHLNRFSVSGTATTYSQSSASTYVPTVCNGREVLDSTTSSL
T2 sequence (P35400 35-915): as the sequence (P35400 35-915 N74K) above, with K40N counted along it
Procedure: Samples were prepared in the same manner as for mGluR2/7 heterodimers and imaged in smFRET.
as §1

[3] = target: T3, SNAP-mGluR2(F756D)/mGluR7 heterodimer (Rattus norvegicus, UniProt P31421+P35400, F756D); assay: Whole-cell patch clamp of GIRK1 current, trans-activation in SNAP-mGluR2(F756D)/mGluR7; format: cell-based; settings: for glutamate GIRK concentration-response relation compared to mGluR2/2: patch clamp
T3 construct: HA (N); expressed in transfected cells; host or cells: HEK293 / HEK293T
T3 sequence (P31421 19-872 F756D): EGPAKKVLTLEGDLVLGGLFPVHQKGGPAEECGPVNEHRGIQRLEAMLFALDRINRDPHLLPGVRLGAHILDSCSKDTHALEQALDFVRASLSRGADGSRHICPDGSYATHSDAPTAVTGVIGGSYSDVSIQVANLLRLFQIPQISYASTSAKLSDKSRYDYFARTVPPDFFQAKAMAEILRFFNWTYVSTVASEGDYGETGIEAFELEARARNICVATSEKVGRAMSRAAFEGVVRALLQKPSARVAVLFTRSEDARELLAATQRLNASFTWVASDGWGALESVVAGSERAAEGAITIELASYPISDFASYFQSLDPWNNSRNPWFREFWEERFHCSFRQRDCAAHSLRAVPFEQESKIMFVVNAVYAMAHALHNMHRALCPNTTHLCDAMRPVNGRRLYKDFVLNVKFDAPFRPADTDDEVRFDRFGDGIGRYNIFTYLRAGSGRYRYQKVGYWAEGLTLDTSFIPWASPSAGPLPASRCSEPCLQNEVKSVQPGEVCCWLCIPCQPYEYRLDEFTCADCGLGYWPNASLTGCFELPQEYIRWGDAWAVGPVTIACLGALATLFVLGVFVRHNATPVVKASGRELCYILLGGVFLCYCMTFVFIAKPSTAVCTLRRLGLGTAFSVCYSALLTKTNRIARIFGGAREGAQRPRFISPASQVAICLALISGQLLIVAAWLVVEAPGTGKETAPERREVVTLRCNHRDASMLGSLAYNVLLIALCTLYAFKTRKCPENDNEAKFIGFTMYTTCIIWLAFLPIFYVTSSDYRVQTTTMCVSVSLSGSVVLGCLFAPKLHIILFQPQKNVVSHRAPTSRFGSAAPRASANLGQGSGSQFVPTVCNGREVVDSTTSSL
T3 sequence (P35400 35-915): as the sequence (P35400 35-915 N74K) above, with K40N counted along it
Description: We explored this further by examining trans-activation, whereby binding of ligand to one subunit activates G-protein interaction in the partner subunit[46],[47]. To specifically activate only the mGluR2 subunit of the mGluR2/7 heterodimer, we selectively attached a photoswitched tethered ligand to mGluR2. […] SNAP-mGluR2(F756D) was co-expressed with wild-type mGluR7 along with the GIRK1 channel.
(§2) Illumination was applied to the entire field of view using either a Polychrome V monochromator (TILL Photonics) through a 20× objective, or a Lambda DG4 high-speed wavelength switcher (Sutter Instruments) with 380 nm and 500 nm filters through a 40× objective. pClamp software was used for both data acquisition and control of illumination.

SNAP-mGluR2(F756D) = target: T4, SNAP-mGluR2(F756D) (Rattus norvegicus, UniProt P31421, F756D); assay: Whole-cell patch clamp of GIRK1 current, SNAP-mGluR2(F756D) expressed alone; format: cell-based; settings: SNAP-mGluR2-F756D alone; 1 mM Glu; single cells
T4 construct: HA (N); expressed in transfected cells; host or cells: HEK293 / HEK293T
T4 sequence (P31421 19-872 F756D): as the sequence (P31421 19-872 F756D) above
Description: We explored this further by examining trans-activation, whereby binding of ligand to one subunit activates G-protein interaction in the partner subunit[46],[47]. To specifically activate only the mGluR2 subunit of the mGluR2/7 heterodimer, we selectively attached a photoswitched tethered ligand to mGluR2.
as §2

[4] = target: SNAP-mGluR2/SNAP-mGluR2 homodimer (mGluR2/2) (Rattus norvegicus, UniProt P31421); assay: Live-cell ensemble FRET of SNAP-mGluR2/2 homodimer in HEK293T cells; format: cell-based; design: HA (N); made in house; host or cells: HEK293T; settings: for normalized FRET response (Figure 3c titration), AVG: left block
Sequence of SNAP-mGluR2/SNAP-mGluR2 homodimer (mGluR2/2) (P31421 19-872): as the sequence (P31421 19-872 F756D) above, with D738F counted along it
Procedure: (§3) After labeling, cells were mounted on an upright, scanning confocal microscope (Zeiss LSM 780) and imaged with a 20X objective. […] Clusters of cells were analyzed together and FRET was calculated as FRET = (IA)/(ID + IA), in which ID is the fluorescence donor intensity and IA is the fluorescence acceptor intensity. […] Fitting of dose–response curves was performed using Prism (Graphpad). […] Drugs were delivered with a gravity-driven perfusion system.

[5] = target: CLIP-mGluR2/SNAP-mGluR7 heterodimer (mGluR2/7) (Rattus norvegicus, UniProt P31421+P35400); assay: Live-cell ensemble FRET of mGluR2/7 heterodimer in HEK293 cells; format: cell-based; design: Flag (N); HA (N); made in house; host or cells: HEK293T; settings: for normalized FRET response (Figure 3c titration), AVG: right block
Sequence of CLIP-mGluR2/SNAP-mGluR7 heterodimer (mGluR2/7) (P31421 19-872): as the sequence (P31421 19-872 F756D) above, with D738F counted along it
Sequence of CLIP-mGluR2/SNAP-mGluR7 heterodimer (mGluR2/7) (P35400 35-915): as the sequence (P35400 35-915 N74K) above, with K40N counted along it
Procedure: The co-expression of SNAP-mGluR7 and CLIP-mGluR2 is expected to yield three dimer stoichiometries: the homodimeric SNAP-mGluR7/SNAP-mGluR7; the homodimeric CLIP-mGluR2/CLIP-mGluR2, and the heterodimeric SNAP-mGluR7/CLIP-mGluR2. Of these, only the heterodimer combines the donor and acceptor and produces a FRET signal.
as §3

N[C@@H](CCC(=O)O)C(=O)O [glutamate]
occupancy of activated low FRET state vs wild-type mGluR7 [1]: greater occupancy of the activated low FRET (~0.2) state
smFRET histogram value ([2]; FRET bin 0): 5.12E-04
smFRET histogram value ([2]; FRET bin 0.02): 0.00118
smFRET histogram value ([2]; FRET bin 0.04): 0.00527
smFRET histogram value ([2]; FRET bin 0.06): 0.01241
smFRET histogram value ([2]; FRET bin 0.08): 0.03308
smFRET histogram value ([2]; FRET bin 0.1): 0.05942
smFRET histogram value ([2]; FRET bin 0.12): 0.08729
smFRET histogram value ([2]; FRET bin 0.14): 0.111
smFRET histogram value ([2]; FRET bin 0.16): 0.1262
smFRET histogram value ([2]; FRET bin 0.18): 0.1233
smFRET histogram value ([2]; FRET bin 0.2): 0.1027
smFRET histogram value ([2]; FRET bin 0.22): 0.08729
smFRET histogram value ([2]; FRET bin 0.24): 0.06369
smFRET histogram value ([2]; FRET bin 0.26): 0.04632
smFRET histogram value ([2]; FRET bin 0.28): 0.03089
smFRET histogram value ([2]; FRET bin 0.3): 0.01963
smFRET histogram value ([2]; FRET bin 0.32): 0.01469
smFRET histogram value ([2]; FRET bin 0.34): 0.01371
smFRET histogram value ([2]; FRET bin 0.36): 0.01107
smFRET histogram value ([2]; FRET bin 0.38): 0.01037
smFRET histogram value ([2]; FRET bin 0.4): 0.00851
smFRET histogram value ([2]; FRET bin 0.42): 0.00558
smFRET histogram value ([2]; FRET bin 0.44): 0.00425
smFRET histogram value ([2]; FRET bin 0.46): 0.00239
smFRET histogram value ([2]; FRET bin 0.48): 0.00285
smFRET histogram value ([2]; FRET bin 0.5): 0.00309
smFRET histogram value ([2]; FRET bin 0.52): 0.00461
smFRET histogram value ([2]; FRET bin 0.54): 0.00369
smFRET histogram value ([2]; FRET bin 0.56): 0.00265
smFRET histogram value ([2]; FRET bin 0.58): 0.00122
smFRET histogram value ([2]; FRET bin 0.6): 7.52E-04
smFRET histogram value ([2]; FRET bin 0.62): 8.08E-05
smFRET histogram value ([2]; FRET bin 0.64): 4.04E-05
smFRET histogram value ([2]; FRET bin 0.66): 1.92E-05
smFRET histogram value ([2]; FRET bin 0.68): 1.92E-05
smFRET histogram value ([2]; FRET bin 0.7): 6.75E-05
smFRET histogram value ([2]; FRET bin 0.72): 4.04E-05
smFRET histogram value ([2]; FRET bin 0.74): 7.95E-06
smFRET histogram value ([2]; FRET bin 0.76): 1.62E-04
smFRET histogram value ([2]; FRET bin 0.78): 4.04E-05
smFRET histogram value ([2]; FRET bin 0.8): 0
smFRET histogram value ([2]; FRET bin 0.82): 0
smFRET histogram value ([2]; FRET bin 0.84): 0
smFRET histogram value ([2]; FRET bin 0.86): 0
smFRET histogram value ([2]; FRET bin 0.88): 0
smFRET histogram value ([2]; FRET bin 0.9): 0
smFRET histogram value ([2]; FRET bin 0.92): 0
smFRET histogram value ([2]; FRET bin 0.94): 0
smFRET histogram value ([2]; FRET bin 0.96): 0
smFRET histogram value ([2]; FRET bin 0.98): 0
smFRET histogram value ([2]; FRET bin 1): 0
active state occupancy ([2]; 10 μM glutamate): ~ 95%
Norm. (100 nM Glu), average ([3]; 100 nM Glu normalised to 1 mM Glu, average of cells): 0.158
Norm. (1 uM Glu), average ([3]; 1 uM Glu normalised to 1 mM Glu, average of cells): 0.4678
Norm. (1 uM Glu) ([3]; 1 uM Glu normalised to 1 mM Glu, single cells, listed as Glu): 0.3693 and 0.5844 and 0.4728 and 0.4449
Norm. (10 uM), average ([3]; 10 uM Glu normalised to 1 mM Glu, average of cells): 0.7782
Norm. (10 uM) ([3]; 10 uM Glu normalised to 1 mM Glu, single cells, listed as Glu): 0.7837 and 0.9099 and 0.6409
Norm. (100 uM), average ([3]; 100 uM Glu normalised to 1 mM Glu, average of cells): 0.9915
Norm. (100 uM) ([3]; 100 uM Glu normalised to 1 mM Glu, single cells, listed as Glu): 1.055 and 0.9085 and 1.011
glutamate GIRK concentration-response relation compared to mGluR2/2 [3]: shifted to the left
glutamate GIRK concentration-response relation compared to mGluR2/2 ([3]; listed as Glutamate): left-shifted
Current, 1 mM Glu (SNAP-mGluR2(F756D)): 0
fractional change in FRET (Figure 1c), Average ([4]; 1 mM glutamate, live cells): 0.0345
normalized FRET response (Figure 3c titration), AVG ([4]; Glu 1uM, normalized to 10 mM): 0.02436
normalized FRET response (Figure 3c titration), AVG ([4]; Glu 5uM): 0.1119
normalized FRET response (Figure 3c titration), AVG ([4]; Glu 10uM): 0.2744
normalized FRET response (Figure 3c titration), AVG ([4]; Glu 20uM): 0.534
normalized FRET response (Figure 3c titration), AVG ([4]; Glu 50uM): 0.7966
normalized FRET response (Figure 3c titration), AVG ([4]; Glu 100uM): 0.8891
normalized FRET response (Figure 3c titration), AVG ([4]; Glu 200uM): 0.9536
normalized FRET response (Figure 3c titration), AVG ([4]; Glu 500uM): 0.9786
normalized FRET response (Figure 3c titration), AVG ([4]; Glu 1mM): 0.9832
normalized FRET response (Figure 3c titration), AVG ([4]; Glu 10mM (normalization point)): 1
major high affinity component, share of total ΔFRET ([5]; live-cell ensemble FRET): ~ 80%
minor lower affinity component, share of total ΔFRET ([5]; live-cell ensemble FRET): ~ 20%
normalized FRET response (Figure 3c titration), AVG ([5]; Glu 1uM, normalized to 10 mM): 0.05708
normalized FRET response (Figure 3c titration), AVG ([5]; Glu 2uM): 0.1039
normalized FRET response (Figure 3c titration), AVG ([5]; Glu 5uM): 0.2535
normalized FRET response (Figure 3c titration), AVG ([5]; Glu 10uM): 0.4051
normalized FRET response (Figure 3c titration), AVG ([5]; Glu 20uM): 0.6543
normalized FRET response (Figure 3c titration), AVG ([5]; Glu 50uM): 0.6971
normalized FRET response (Figure 3c titration), AVG ([5]; Glu 100uM): 0.7929
normalized FRET response (Figure 3c titration), AVG ([5]; Glu 200uM): 0.7943
normalized FRET response (Figure 3c titration), AVG ([5]; Glu 500uM): 0.8921
normalized FRET response (Figure 3c titration), AVG ([5]; Glu 1mM): 0.9417
normalized FRET response (Figure 3c titration), AVG ([5]; Glu 2mM): 1.009
normalized FRET response (Figure 3c titration), AVG ([5]; Glu 10mM (normalization point)): 1
